Source: US20260224590A1 (priority 2023, published 2026)
Like-named read-outs stand apart in the source and are kept apart here.

Legend:
5-HT2A receptor [1] = molecular target: T1, 5-HT2A receptor (Homo sapiens, UniProt P28223); experiment: 5-HT2A receptor downstream β-arrestin2 recruitment in HEK-293T cells; assay type: cell-based; design: expressed in transfected cells; host or cells: HEK-293T (ATCC, CRL-11268); conditions: for β-arrestin2 signaling agonistic activity (% in parentheses): HEK-293T, percentage printed in parentheses beside the nM value, not defined; for signaling pathway selectivity at the 5-HT2A receptor (β-arrestin2 versus G protein): statement on Table 2
T1 sequence (P28223 whole entry): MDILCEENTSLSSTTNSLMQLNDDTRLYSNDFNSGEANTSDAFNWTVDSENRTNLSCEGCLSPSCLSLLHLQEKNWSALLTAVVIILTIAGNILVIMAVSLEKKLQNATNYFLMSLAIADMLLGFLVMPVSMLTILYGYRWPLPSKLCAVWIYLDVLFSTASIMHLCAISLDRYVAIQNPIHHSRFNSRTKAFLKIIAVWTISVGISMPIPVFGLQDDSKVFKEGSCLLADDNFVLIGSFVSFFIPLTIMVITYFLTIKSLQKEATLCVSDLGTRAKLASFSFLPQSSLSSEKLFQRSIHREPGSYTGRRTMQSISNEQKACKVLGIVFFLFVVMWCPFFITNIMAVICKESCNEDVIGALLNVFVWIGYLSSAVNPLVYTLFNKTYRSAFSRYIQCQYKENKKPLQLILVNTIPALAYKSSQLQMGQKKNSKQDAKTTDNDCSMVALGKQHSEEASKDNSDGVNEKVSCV
Protocol: (§1) On the second day, the confluent cells from a 6 cm culture dish were digested and reseeded into a 96-well plate at a volume of 100 μL of culture medium per well. On the third day, the drugs were added for testing. The 96-well plate was taken out from the cell incubator to decant the culture medium. 40 μL of the substrate coelenterazine 400a (final concentration 5 μM) was added to each well, and then 20 μL of different drugs were added sequentially from left to right, ensuring that the final concentration of the drug decreased gradually from bottom to top, with two replicates per treatment. Finally, the prepared samples were loaded on a plate reader for signal quantification. The readout values reflected the recruitment of β-arrestin2 to the membrane or the dissociation of G protein trimer. The former indicated the degree of activation of the downstream β-arrestin2 signaling pathway mediated by the 5-HT2A receptor, and the latter indicated the degree of activation of the downstream G protein signaling pathway mediated by the 5-HT2A receptor.

5-HT2A receptor [2] = molecular target: T1, 5-HT2A receptor; experiment: radioligand competitive binding assay, affinity for the 5-HT2A receptor; conditions: [3H]-LSD competition, 293T membranes transiently expressing 5-HT2A receptor
C57BL/6J mice = experiment: head-twitch response in mice (hallucinogenic effects); assay type: in vivo; conditions: intraperitoneal injection, first 30 minutes, all doses tested
From the text: Method: The head-twitch response in mice was detected via oscillatory signals to characterize hallucinogenic effects. Mice (strain C57BL/6J, purchased from Shanghai Lingchang Biotech Co., Ltd.) were anesthetized with 2% isoflurane. A small portion of the scalp was removed from the center of the dorsal cranium. A custom-made small neodymium magnet (4 mm×4 mm×2 mm) was attached to the center of the dorsal cranium using dental resin. The magnet N-S poles were kept parallel to the dorsoventral aspect of the implant. The mice were allowed to recover for 1 week before testing. To record precise head movements, the mice were placed in a glass beaker with a diameter of 12 cm, surrounded by 150 turns of #30 enameled copper wire. The output signal from the coil was recorded using a PowerLab/4SP instrument installed with LabChart V8.1.16 software. Coil voltage was amplified, low-pass filtered at 10 kHz to remove radio frequency interference, and sampled at 40 kHz. For the detection of head-twitch response in mice, LabChart data were processed with a digital band-pass filter at 40 to 200 Hz. The head-twitch response in mice was identified by searching for sinusoidal wavelets that met the following criteria: 1) containing more than two bipolar peaks; 2) amplitude exceeding background noise level; 3) duration less than 120 milliseconds. 1 hour prior to the test, the mice were transferred to the test room for acclimatization. Subsequently, the mice were placed in the beaker for 30 minutes, and baseline head-twitch response values were recorded. Immediately after baseline recording, the mice were injected intraperitoneally with the test compound, and head-twitch response values were recorded for 1 to 2 hours post-dose, depending on the compound used. Statistical values were taken from the first 30 minutes.

in vivo = conditions: male, C57, mouse, plasma, ip, 5 mg/kg
Protocol: (§3) The concentration of the compound in mouse plasma was determined using LC-MS/MS, and the relevant pharmacokinetic parameters were calculated to investigate the pharmacokinetic characteristics of the compound in mice.
(§4) Experimental design: 60 male C57 mice (purchased from Suzhou JOINN Laboratory Animal Co., Ltd.) were randomly divided into groups based on weight, with 3 mice per group. The mice were fasted with water ad libitum for 12 to 14 hours one day before test-article administration and fed 4 hours after the administration. The route of administration was intraperitoneal (IP), with a dosing concentration of 1 mg/mL, and a solvent formulation of 10% DMSO+90% saline.
(§5) Sample collection: 0.1 mL of blood was collected from the orbit under isoflurane anesthesia before and after test-article administration, transferred to EDTA K2 tubes, and placed on an ice bath. The samples were centrifuged at 5000 rpm for 10 minutes at 4° C., and the plasma was collected. […] Prior to analysis, all plasma samples were stored at −80° C.
(§6) Data processing: Drug concentrations in plasma and brain tissues were measured using LC-MS (API4000QTRAP triple quadrupole tandem mass spectrometer, equipped with an electrospray ionization source (ESI)). The data collection and control system software utilized was Analyst 1.5.1 (Applied Biosystems). The sample peak integration in the spectrum was conducted automatically; the ratio of the sample peak area to the internal standard peak area was used as an indicator to perform regression with the concentration of the sample. Regression method: Linear regression with a weighting factor of 1/X^2. Pharmacokinetic parameters were analyzed using a non-compartmental model in WinNonlin Professional v6.3 (Pharsight, USA). Cmax is the measured maximum plasma concentration, the area under the plasma concentration-time curve (AUC(0→t)) was calculated by the trapezoidal method, and Tmax is the time to reach peak plasma concentration after administration. Experimental data are presented as “Mean±Standard Deviation” (Mean±SD, n≥3) or “Mean” (n=2).

[3] = test system: C57BL/6 mice, corticosterone in drinking water; experiment: tail suspension test after 21 days of corticosterone exposure; assay type: in vivo; conditions: corticosterone model
Protocol: Antidepressant efficacy test method: Male C57BL/6 mice (8 weeks old, purchased from Shanghai Lingchang Biotech Co., Ltd.) were administered a solution of corticosterone in their drinking water at a concentration of 25 μg/mL using drinking water bottles for 21 days. Mice were maintained on a 12-hour light cycle. Corticosterone-containing drinking water was refreshed every other day for the first two weeks, and gradually replaced with corticosterone-free drinking water every two days for the last week. […] TST procedure: mice in the control group and the administration group were suspended by their tails with tape for 6 minutes, and their behavior was recorded by a video camera. The immobility time during the last 4 minutes was manually timed and assessed by an observer who was unaware of the treatment conditions.

5-HT2A receptor [4] = molecular target: T1, 5-HT2A receptor; experiment: 5-HT2A receptor downstream G protein (Gq) signaling, G protein trimer dissociation in HEK-293T cells; assay type: cell-based; design: expressed in transfected cells; host or cells: HEK-293T (ATCC, CRL-11268); conditions: percentage printed in parentheses beside the nM value, not defined
Protocol: as §1

[5] = test system: C57BL/6J wild-type mice, acute restraint stress; experiment: tail suspension test (TST) after acute restraint stress; assay type: in vivo; conditions: 5 h acute restraint stress, intraperitoneal injection, test after 30 minutes
Protocol: (§2) Method: Acute restraint stress (ARS) is frequently used to induce a depressive state in mice. The forced swim test (FST) and tail suspension test (TST) are currently the most commonly used models for inferring “depression-like” behaviors. C57BL/6J wild-type mice (over 8 weeks old, purchased from Shanghai Lingchang Biotech Co., Ltd.) were restrained individually in a rodent restraint device for 5 hours. The mice were restricted from all body movements, but only minimal pain was introduced. During the ARS experiment, the mice were deprived of both food and water. After 5 hours of restraint, a separate group of mice was released and immediately injected intraperitoneally with the test compound. After 30 minutes of recovery, the behavioral changes of the mice were assessed through the Forced Swim Test (FST) or Tail Suspension Test (TST). […] All mice were forced to swim for 6 minutes, and their behavior was recorded using a video camera. The immobility time during the last 4 minutes of the test was recorded. […] In the TST, mice in the control group and those subjected to restraint stress were suspended by their tails with tape for 6 minutes, and their behavior was recorded using a video camera. The immobility time during the last 4 minutes was manually timed and assessed by an observer who was unaware of the treatment conditions.

dopamine D2 receptor = molecular target: T2, dopamine D2 receptor (Homo sapiens, UniProt P14416); experiment: radioligand competitive binding assay, affinity for the dopamine D2 receptor
T2 construct: expressed in transfected cells; host or cells: HEK-293T (ATCC, CRL-11268)
T2 sequence (P14416 whole entry, species assumed): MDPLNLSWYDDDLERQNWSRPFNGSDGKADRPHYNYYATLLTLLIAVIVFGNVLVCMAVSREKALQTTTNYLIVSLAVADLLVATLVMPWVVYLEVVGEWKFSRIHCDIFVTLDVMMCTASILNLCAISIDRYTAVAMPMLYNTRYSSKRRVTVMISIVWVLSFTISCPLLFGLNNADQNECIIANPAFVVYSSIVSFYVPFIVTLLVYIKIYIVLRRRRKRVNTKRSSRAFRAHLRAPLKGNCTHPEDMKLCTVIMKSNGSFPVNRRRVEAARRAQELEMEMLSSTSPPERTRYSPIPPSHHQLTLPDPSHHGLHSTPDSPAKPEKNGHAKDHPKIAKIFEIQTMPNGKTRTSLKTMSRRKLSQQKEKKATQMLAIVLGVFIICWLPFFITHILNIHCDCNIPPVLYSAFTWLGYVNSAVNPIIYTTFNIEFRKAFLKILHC
Protocol: Method: The affinity of the compounds of the present disclosure for the dopamine D2 receptor was determined using a radioligand competitive binding assay as follows. In the first step, a cell membrane component containing dopamine D2 receptor was prepared. […] 48 hours post-transfection, the 10 cm culture dish was taken out from the cell incubator and the cultured cells had expressed the dopamine D2 receptor. The culture medium was aspirated using a vacuum pump, and 3 mL of lysis buffer was added to each culture dish. The cells were then placed in a cold room at 4° C. for 10 minutes. After the cells were detached, they were transferred to a 15 mL centrifuge tube and centrifuged at 1500 rpm for 5 minutes at 4° C., and the supernatant was discarded. The cell pellet was transferred to a tissue homogenizer, and 3 mL of lysis buffer was added. Sufficient grinding was applied to break the cells. The cell suspension was then equally aliquoted into several Eppendorf tubes and centrifuged at 12000 rpm for 5 minutes at 4° C., and the supernatant was discarded. The resulting precipitate was the cell membrane component containing the dopamine D2 receptor. […] The machine readout value reflected the amount of [3H]-Methylspiperone bound on the membrane, and after further data processing, the affinity Ki values of different compounds for the dopamine D2 receptor were obtained.

[6] = test system: C57BL/6J wild-type mice, acute restraint stress; experiment: forced swim test (FST) after acute restraint stress; assay type: in vivo; conditions: 5 h acute restraint stress, intraperitoneal injection, test after 30 minutes
Protocol: as §2

[7] = 10 mg/kg IP, male C57 mice
Protocol: as §3, §4, §5, §6

[8] = depressive episodes associated with bipolar I or II disorder; Calabrese et al. 2021; cited from earlier work
[9] = Ki, affinity for the 5-HT2A receptor
[10] = read-out: Ki, affinity for the 5-HT2A receptor

For `COc1ccccc1CCN1CCC2C(C1)c1cccc3c1N2CCCN3C` (single isomer, unassigned) [I-13], the “β-arrestin2 signaling agonistic activity (% in parentheses)” value (5-HT2A receptor [1]) was “(51.4%)” and the “signaling pathway selectivity at the 5-HT2A receptor (β-arrestin2 versus G protein)” value (from here on “signaling pathway selectivity”) (5-HT2A receptor [1]) was “selectively activate the recruitment of β-arrestin2 mediated by the 5-HT2A receptor, without activating the G protein signaling pathway”.
`COc1ccccc1CCCN1CCC2C(C1)c1cccc3c1N2CCCN3C` (single isomer, unassigned) [I-14] gave a Ki (5-HT2A receptor [2]; [9]) of 28 nM.
In the case of `COc1ccccc1CCCN1CCC2C(C1)c1cccc3c1N2CCCN3C` (single isomer, unassigned) [I-15], the Ki (5-HT2A receptor [2]; [9]) is reported as 7 nM, the “β-arrestin2 signaling agonistic activity (% in parentheses)” value (5-HT2A receptor [1]) is reported as “(24.3%)” and the “signaling pathway selectivity” value (5-HT2A receptor [1]) is reported as “selectively activate the recruitment of β-arrestin2 mediated by the 5-HT2A receptor, without activating the G protein signaling pathway”.
`COc1ccccc1CCCN1CCC2C(C1)c1cccc3c1N2CCC3` (single isomer, unassigned) [I-18] showed a Ki (5-HT2A receptor [2]; [9]) of 57 nM.
For `COc1ccccc1CCCN1CCC2C(C1)c1cccc3c1N2CCC3` (single isomer, unassigned) [I-19], the “β-arrestin2 signaling agonistic activity (% in parentheses)” value (5-HT2A receptor [1]) was “(59.4%)” and the “signaling pathway selectivity” value (5-HT2A receptor [1]) was “selectively activate the recruitment of β-arrestin2 mediated by the 5-HT2A receptor, without activating the G protein signaling pathway”.
With `COc1ccccc1CCCN1CCC2C(C1)c1cccc3c1N2CCO3` (single isomer, unassigned) [I-23] the “hallucinogenic effects (head-twitch response)” value (shortened to “hallucinogenic effects”) (C57BL/6J mice) was “did not induce hallucinogenic effects”, the AUC0-inf (in vivo) was 540 ng·h/mL and the “antidepressant effect in the mouse tail suspension test” value ([3]; 10 mg/kg single injection, after 7 days) was “remained significant”. The “antidepressant effect in the mouse tail suspension test” value ([3]; 10 mg/kg single injection, after 14 days) was “remained significant”, the “antidepressant effect in the mouse tail suspension test” value ([3]; one day after a single administration) was “significant antidepressant effect” and the “β-arrestin2 signaling agonistic activity (% in parentheses)” value (5-HT2A receptor [1]) was “(51.6%)”.
With `CN1CCN2c3c(cccc31)[C@@H]1CN(Cc3ccccc3O)CC[C@@H]12` [I-2, 2-(((6bR,10aS)-3-methyl-2,3,6b,9,10,10a-hexahydro-1H-pyrido[3′,4′:4,5]pyrrolo[1,2,3-de]quinoxalin-8 (7H)-yl)methyl)phenol] the Ki (5-HT2A receptor [2]; [10]) was 525 nM, the “Gq signaling agonistic activity (% in parentheses)” value (5-HT2A receptor [4]) was “(65.3%)” and the “β-arrestin2 signaling agonistic activity (% in parentheses)” value (5-HT2A receptor [1]) was “(68.4%)”.
For `COc1ccccc1CCN1CC[C@H]2[C@@H](C1)c1cccc3c1N2CCN3C` [I-3], the Ki (5-HT2A receptor [2]; [10]) was 17 nM, the “hallucinogenic effects” value (C57BL/6J mice) was “did not induce hallucinogenic effects” and the “antidepressant effect in the TST (immobility time)” value [5] was “significant antidepressant effect”. For the same molecule, the “affinity for the dopamine receptor, in words” value (dopamine D2 receptor) was “weak affinity”, the “antidepressant effect in the FST (immobility time)” value [6] was “significant antidepressant effect” and the “Gq signaling agonistic activity (% in parentheses)” value (5-HT2A receptor [4]) was “(20.2%)”. The “β-arrestin2 signaling agonistic activity (% in parentheses)” value (5-HT2A receptor [1]) was “(39.0%)”.
In the case of `COc1cccc(CCN2CC[C@H]3[C@@H](C2)c2cccc4c2N3CCN4C)c1` [I-4], the Ki (5-HT2A receptor [2]; [10]) is reported as 88 nM, the “Gq signaling agonistic activity (% in parentheses)” value (5-HT2A receptor [4]) is reported as “(13.7%)” and the “β-arrestin2 signaling agonistic activity (% in parentheses)” value (5-HT2A receptor [1]) is reported as “(44.2%)”.
In the case of `COc1ccc(CCN2CC[C@H]3[C@@H](C2)c2cccc4c2N3CCN4C)cc1` [I-5], the Ki (5-HT2A receptor [2]; [10]) is reported as 126 nM and the “β-arrestin2 signaling agonistic activity (% in parentheses)” value (5-HT2A receptor [1]) is reported as “(3.2%)”.
In the case of `COc1cccc(CCN2CC[C@H]3[C@@H](C2)c2cccc4c2N3CCN4C)c1OC` [I-6], the Ki (5-HT2A receptor [2]; [10]) is reported as 5240 nM.
For `CN1CCN2c3c(cccc31)[C@@H]1CN(CCc3ccccc3O)CC[C@@H]12` [I-9, 2-(2-((6bR,10aS)-3-methyl-2,3,6b,9,10,10a-hexahydro-1H-pyrido[3′,4′:4,5]pyrrolo[1,2,3-de]quinoxalin-8 (7H)-yl)ethyl)phenol], the “β-arrestin2 signaling agonistic activity (% in parentheses)” value (5-HT2A receptor [1]) was “(14.4%)”.
With `COc1ccccc1CCCN1CC[C@H]2[C@@H](C1)c1cccc3c1N2CCN3C` [I-10] the Ki (5-HT2A receptor [2]; [10]) was 13 nM, the “hallucinogenic effects” value (C57BL/6J mice) was “did not induce hallucinogenic effects” and the “antidepressant effect in the TST (immobility time)” value [5] was “significant antidepressant effect”. For the same molecule, the “affinity for the dopamine receptor, in words” value (dopamine D2 receptor) was “weak affinity”, the “antidepressant effect in the FST (immobility time)” value [6] was “significant antidepressant effect” and the AUC0-inf ([7]; brain) was 1346 h · ng · mL^−1 or ng · g^−1. For the same molecule, the AUC0-t ([7]; brain) was 1335 h · ng · mL^−1 or ng · g^−1, the AUMC0-inf ([7]; brain) was 2054 h · h · ng · mL^−1 or ng · g^− and the AUMC0-t ([7]; brain) was 1979 h · h · ng · mL^−1 or ng · g^−. It also gave a Cmax ([7]; brain) of 566 ng/g, an MRT ([7]; brain) of 91.8 min and a T1/2 ([7]; brain) of 48.1 min. It also gave a tmax ([7]; brain) of 30 min, an AUC0-inf ([7]; plasma) of 582 ng·h/mL and an AUC0-t ([7]; plasma) of 576 ng·h/mL. The Cmax ([7]; plasma) was 225 ng/mL, the MRT ([7]; plasma) was 127 min and the T1/2 ([7]; plasma) was 63.6 min. The tmax ([7]; plasma) was 4.98 min and the “β-arrestin2 signaling agonistic activity (% in parentheses)” value (5-HT2A receptor [1]) was “(12.7%)”.
In the case of `CN1CCN2c3c(cccc31)[C@@H]1CN(CCCc3ccccc3O)CC[C@@H]12` [I-11, 2-(3-((6bR,10aS)-3-methyl-2,3,6b,9,10,10a-hexahydro-1H-pyrido[3′,4′:4,5]pyrrolo[1,2,3-de]quinoxalin-8 (7H)-yl)propyl)phenol], the “Gq signaling agonistic activity (% in parentheses)” value (5-HT2A receptor [4]) is reported as “(9.7%)” and the “β-arrestin2 signaling agonistic activity (% in parentheses)” value (5-HT2A receptor [1]) is reported as “(36.8%)”.
For `COc1ccccc1CCCN1CC[C@@H]2[C@H](C1)c1cccc3c1N2CCCS3` [I-27], the “β-arrestin2 signaling agonistic activity (% in parentheses)” value (5-HT2A receptor [1]) was “(35.7%)” and the “signaling pathway selectivity” value (5-HT2A receptor [1]) was “selectively activate the recruitment of β-arrestin2 mediated by the 5-HT2A receptor, without activating the G protein signaling pathway”.
For `CN1CCN2c3c(cccc31)[C@@H]1CN(CCCC(=O)c3ccc(F)cc3)CC[C@@H]12` [lumateperone], the patient response rate [8] is given as 51.1%.
